According to patent US20240148821A1, “PHARMACEUTICAL USE OF CYCLIC PEPTIDE COMPOUND” (CHUGAI SEIYAKU KABUSHIKI KAISHA, priority 2021, published 2024):
Numbered stars: 1 amine (or outer) side, 2 acyl side, 3 side chain; on linkers, the order of the positions; unused ones are H or OH. Bridge positions count the residues as written; N and C are the ends. Square brackets hold non-standard residues; d marks the D form. Peptide text beside a SMILES is read from it. * marks the point of attachment. hPhe(3-Cl-4-CF3) = N[C@@H](CCc1ccc(C(F)(F)F)c(Cl)c1)C(=O)O; hPhe(3-F,4-CF3) = N[C@@H](CCc1ccc(C(F)(F)F)c(F)c1)C(=O)O; X37 = CC(C)(C)NC(=O)COC[C@H](CC(=O)[*:1])N[*:2]; NMePhe(4-Cl) = CN[C@@H](Cc1ccc(Cl)cc1)C(=O)O; NMePhe(4-Me) = CN[C@@H](Cc1ccc(C)cc1)C(=O)O; X79 = O=C([C@H](Cc1ccc(Cl)s1)N[*:1])[*:2]; NMeGly(cPent) = CN[C@H](C(=O)O)C1CCCC1; Phe(3-I) = N[C@@H](Cc1cccc(I)c1)C(=O)O; NMe3Pal = CN[C@@H](Cc1cccnc1)C(=O)O; NMeCha = CN[C@@H](CC1CCCCC1)C(=O)O; NMehLeu = CN[C@@H](CCC(C)C)C(=O)O; NEtLeu = CCN[C@@H](CC(C)C)C(=O)O; NMeChg = CN[C@H](C(=O)O)C1CCCCC1; NMeI = CC[C@H](C)[C@H](NC)C(=O)O; hPhe = N[C@@H](CCc1ccccc1)C(=O)O; NMeD = CN[C@@H](CC(=O)O)C(=O)O; NMeL = CN[C@@H](CC(C)C)C(=O)O; NMeV = CN[C@H](C(=O)O)C(C)C; d(β3hA) = C[C@@H](N)CC(=O)O; Azetidin(1-yl) = C1CN(*)C1; NMeS = CN[C@@H](CO)C(=O)O; NMeA = CN[C@@H](C)C(=O)O; NMeAib = CNC(C)(C)C(=O)O; Nle = CCCC[C@H](N)C(=O)O; Piperidide = C1CCN(*)CC1; Pyrrolidide = C1CCN(*)C1; Ac5c = NC1(C(=O)O)CCCC1; Aze = O=C(O)[C@@H]1CCN1; Nleu = CC(C)CNCC(=O)O; Isopentyl = CC(C)CC*; Sar = CNCC(=O)O

The compounds below were run on Human pancreatic cancer cell line AsPC-1 (G12D mutation Kras) (assay: AsPC-1 cell growth inhibition (AsPC-1 CGI)). Conditions: read-out: AsPC-1 cell growth inhibition, 50% growth inhibitory concentration (IC50 value); 96 hours, CellTiter-Glo, values classified in ranges.
Assay type: cell-based
Method: Test compounds were serially dilated with dimethyl sulfoxide, and 200 nL was then dispensed to a U-bottom 96-well plate using Labcyte Echo. […] The cell suspension was dispensed to a. plate containing a test compound at 100 μL per well and incubated at 37° C. in a 5% carbon dioxide gas incubator. 96 hours later, 80 μL of CellTiter-Glo (Promega) was added to each well and fluorescence was measured.

| SMILES | IC50 [nM] |
| --- | --- |
| CCCC[C@@H]1NC(=O)[C@H](Cc2ccc(Cl)s2)NC(=O)CN(C)C(=O)[C@H](Cc2ccc(Cl)cc2)N(C)C(=O)CN(C)C(=O)CN(C)C(=O)[C@H]([C@@H](C)CC)NC(=O)[C@H](CC(C)C)N(C)C(=O)C[C@@H](C(=O)N2CCCCC2)N(C)C(=O)[C@H](CC(C)C)NC(=O)C(C)(C)N(C)C1=O [Compound 1318] ([NMeL]I[Sar][Sar][NMePhe(4-Cl)][Sar][X79][Nle][NMeAib]L[NMeD]-Piperidide; lactam N-11) | > 500 |
| CC[C@H](C)[C@@H]1NC(=O)[C@H](CC(C)C)N(C)C(=O)C[C@@H](C(=O)N2CCCCC2)NC(=O)[C@H](C2CCCCC2)N(C)C(=O)C2(CCCC2)NC(=O)[C@@H]2CCCN2C(=O)[C@H](CCc2ccc(C(F)(F)F)c(Cl)c2)NC(=O)CN(C)C(=O)[C@H](CC2CCCCC2)N(C)C(=O)CN(C)C(=O)CN(C)C1=O [Compound 1274] ([NMeL]I[Sar][Sar][NMeCha][Sar][hPhe(3-Cl-4-CF3)]P[Ac5c][NMeChg]D-Piperidide; lactam N-11) | > 500 |
| CC[C@H](C)[C@@H]1NC(=O)[C@H](CCC(C)C)N(C)C(=O)C[C@@H](C(=O)N2CCC2)N(C)C(=O)[C@H](C2CCCC2)N(C)C(=O)C2(CCCC2)NC(=O)[C@@H]2CCCN2C(=O)[C@H](CCc2ccc(C(F)(F)F)c(Cl)c2)NC(=O)CN(C)C(=O)[C@H](CC2CCCCC2)N(C)C(=O)[C@@H]2CCN2C(=O)[C@H](C)N(C)C1=O [Compound 806] ([NMehLeu]I[NMeA][Aze][NMeCha][Sar][hPhe(3-Cl-4-CF3)]P[Ac5c][NMeGly(cPent)][NMeD]-{Azetidin(1-yl)}; lactam N-11) | ≤ 20 |
| CC[C@H](C)[C@@H]1NC(=O)[C@H](C)N(C)C(=O)C[C@@H](C(=O)N2CCCC2)N(C)C(=O)[C@H](C2CCCCC2)N(C)C(=O)C2(CCCC2)NC(=O)[C@H](Cc2cccnc2)N(C)C(=O)[C@H](CCc2ccc(C(F)(F)F)c(Cl)c2)NC(=O)CN(C)C(=O)[C@H](CC2CCCCC2)N(C)C(=O)[C@@H]2CCN2C(=O)CN(C)C1=O [Compound 1810] ([NMeA]I[Sar][Aze][NMeCha][Sar][hPhe(3-Cl-4-CF3)][NMe3Pal][Ac5c][NMeChg][NMeD]-Pyrrolidide; lactam N-11) | > 500 |
| CC[C@H](C)[C@@H]1NC(=O)[C@H](CC(C)C)N(C)C(=O)C[C@@H](C(=O)N(C)C)N(C)C(=O)[C@H]([C@@H](C)CC)N(C)C(=O)C2(CCCC2)NC(=O)[C@H](COCCC(C)C)N(C)C(=O)[C@H](CCc2ccc(C(F)(F)F)c(Cl)c2)NC(=O)CN(C)C(=O)[C@H](Cc2ccc(C)cc2)N(C)C(=O)[C@@H]2CCN2C(=O)[C@H](C)N(C)C1=O [Compound 27] ([NMeL]I[NMeA][Aze][NMePhe(4-Me)][Sar][hPhe(3-Cl-4-CF3)][NMeS](Isopentyl)[Ac5c][NMeI][NMeD]-NMe2; lactam N-11) | ≤ 20 |
| CC[C@H](C)[C@@H]1NC(=O)[C@H](CC(C)C)N(C)C(=O)C[C@@H](COCC(=O)NC(C)(C)C)NC(=O)[C@H](C(C)C)N(C)C(=O)C2(CCCC2)NC(=O)[C@@H]2CCCN2C(=O)[C@H](CCc2ccc(C(F)(F)F)c(Cl)c2)NC(=O)CN(C)C(=O)[C@H](CC2CCCCC2)N(C)C(=O)CN(C)C(=O)CN(C)C1=O [Compound 955] ([NMeL]I[Sar][Sar][NMeCha][Sar][hPhe(3-Cl-4-CF3)]P[Ac5c][NMeV]; linker N-C via X37) | > 500 |
| CC[C@H](C)[C@@H]1NC(=O)[C@H](CC(C)C)N(C)C(=O)C[C@@H](C)NC(=O)[C@H](C(C)C)N(C)C(=O)C2(CCCC2)NC(=O)[C@@H]2CCCN2C(=O)[C@H](CCc2ccc(C(F)(F)F)c(Cl)c2)NC(=O)CN(C)C(=O)[C@H](CC2CCCCC2)N(C)C(=O)CN(C)C(=O)CN(CC(C)C)C1=O [Compound 970] (cyclo([Ac5c][NMeV][d(β3hA)][NMeL]I[Nleu][Sar][NMeCha][Sar][hPhe(3-Cl-4-CF3)]P)) | > 500 |
| CC[C@H](C)[C@@H]1NC(=O)[C@H](CC(C)C)N(C)C(=O)C[C@@H](C(=O)N2CCCCC2)N(C)C(=O)[C@H](CC(C)C)NC(=O)C(C)(C)N(C)C(=O)[C@H](CCc2ccccc2)NC(=O)[C@H](Cc2cccc(I)c2)NC(=O)CN(C)C(=O)[C@H](Cc2ccc(C)cc2)N(C)C(=O)[C@@H]2CCN2C(=O)CN(C)C1=O [Compound 442] ([NMeL]I[Sar][Aze][NMePhe(4-Me)][Sar][Phe(3-I)][hPhe][NMeAib]L[NMeD]-Piperidide; lactam N-11) | > 500 |
| CC[C@H](C)[C@@H]1NC(=O)[C@H](CC(C)C)N(CC)C(=O)C[C@@H](C(=O)N(C)C)N(C)C(=O)[C@H](C2CCCC2)N(C)C(=O)C2(CCCC2)NC(=O)[C@@H]2CCCN2C(=O)[C@H](CCc2ccc(C(F)(F)F)c(Cl)c2)NC(=O)CN(C)C(=O)[C@H](Cc2ccc(C)cc2)N(C)C(=O)[C@@H]2CCN2C(=O)[C@H](C)NC1=O [Compound 1282] ([NEtLeu]IA[Aze][NMePhe(4-Me)][Sar][hPhe(3-Cl-4-CF3)]P[Ac5c][NMeGly(cPent)][NMeD]-NMe2; lactam N-11) | ≤ 20 |
| CC[C@H](C)[C@@H]1NC(=O)[C@H](C(C)C)N(C)C(=O)C[C@@H](C)NC(=O)[C@H](CC(C)C)N(C)C(=O)C2(CCCC2)NC(=O)[C@H](CC(C)C)N(C)C(=O)[C@H](CCc2ccc(C(F)(F)F)c(F)c2)NC(=O)CN(C)C(=O)[C@H](Cc2ccc(Cl)cc2)N(C)C(=O)[C@@H]2CCN2C(=O)CN(C)C1=O [Compound 418] (cyclo([Ac5c][NMeL][d(β3hA)][NMeV]I[Sar][Aze][NMePhe(4-Cl)][Sar][hPhe(3-F,4-CF3)][NMeL])) | > 500 |
